The values that follow come from US20110257258A1 (priority 2006, published 2011).

For one assay, the system named is H5N1. Format: cell-based.
Assay [1] relates to Avian Influenza virus. Also on record: species or system Human. Conditions: in vivo.
The test system of assay [2] is Avian Influenza virus. Also on record: species or system Human. As to conditions: in vivo. The source holds these as a separate data set.

As to `O=C(O[C@@H]1Cc2c(O)cc(O)cc2O[C@@H]1c1cc(=O)c(O)c2c(O)c(O)cc([C@H]3Oc4cc(O)cc(O)c4C[C@H]3O)c2c1)c1cc(O)c(O)c(O)c1` [theaflavin-3-monogallate], in the assay on H5N1, the “inhibits H5N1 infections in mammalian cells by blocking the attachment and entry into the cells” value is “inhibits H5N1 infections”. Turning to `O=c1c(O)cc([C@H]2Oc3cc(O)cc(O)c3C[C@H]2O)cc2c([C@H]3Oc4cc(O)cc(O)c4C[C@H]3O)cc(O)c(O)c12` [theaflavin], the “adults in the test group developing Avian Influenza symptoms” value in the assay with Avian Influenza virus [1] is “None”. For the same molecule, in the assay on Avian Influenza virus [2], the “abatement of Avian Influenza symptoms” value is on record as “abate more rapidly than normal” and the “recovery from the Avian Influenza illness” value was “fully recovers”. Also, the “inhibits H5N1 infections in mammalian cells by blocking the attachment and entry into the cells” value with H5N1 was “inhibits H5N1 infections”. Consider (−)-epigallocatechin gallate [EGCG], for which, in the assay with H5N1, the “inhibits H5N1 infections in mammalian cells by blocking the attachment and entry into the cells” value is given as “inhibits H5N1 infections”. On the same count and under the same terms, then theaflavin-3,3′-digallate, with “inhibits H5N1 infections”; and theaflavin-3′-gallate, with “inhibits H5N1 infections”.
